Earlier results as cited in US20100112724A1, “METHOD OF DETERMINATION OF PROTEIN LIGAND BINDING AND OF THE MOST PROBABLE LIGAND POSE IN PROTEIN BINDING SITE” (priority 2007, published 2010).

System: protein of the protein-ligand complex (pdb code)
Details: experimentally known binding affinity of test and training protein-ligand complexes selected from PDB, structures described in publications [7, 8, 9]

Row | Structure (SMILES) | ΔG, kcal/mol (free energy of ligand-protein binding)
1 | C[C@H]1O[C@H](O)[C@H](O)[C@@H](O)[C@H]1O [1ABF] | -7.3 kcal/mol
2 | OC[C@H]1O[C@H](O[C@H]2[C@H](O)[C@@H](O)[C@H](O)O[C@@H]2CO)[C@H](O)[C@@H](O)[C@@H]1O [1ANF] | -7.3 kcal/mol
3 | C[C@H]1O[C@@H](O)[C@H](O)[C@@H](O)[C@H]1O [1APB] | -7.8 kcal/mol
4 | NS(=O)(=O)c1ccc(S(=O)(=O)NCc2cccs2)s1 [1BNW] | -12.9 kcal/mol
5 | C[C@]12CCC(=O)C[C@H]1CC[C@@H]1[C@@H]2CC[C@]2(C)C(=O)CC[C@@H]12 [1DBK] | -11 kcal/mol
6 | Nc1nc(=O)c2nc(CNc3ccc(C(=O)N[C@@H](CCC(=O)O)C(=O)O)cc3)cnc2[nH]1 [1DHF] | -10.1 kcal/mol
7 | C[C@H](NC(=O)[C@@H](CS)Cc1ccccc1)C(=O)NCC(N)=O [1JAO] | -8.1 kcal/mol
8 | CC(=O)N[C@H]1[C@H]([C@H](O)[C@H](O)CO)OC(C(=O)O)=C[C@@H]1O [1NNB] | -7.2 kcal/mol
9 | CC(=O)N[C@H]1[C@H]([C@@H](O)[C@@H](O)CO)O[C@@](O)(C(=O)O)C[C@@H]1O [1NSC] | -4.1 kcal/mol
10 | NCC1CCCCC1 [1TNG] | -4 kcal/mol
11 | NCCCCc1ccccc1 [1TNI] | -2.3 kcal/mol
12 | NCCc1ccccc1 [1TNJ] | -2.7 kcal/mol
13 | N[C@H]1C[C@@H]1c1ccccc1 [1TNL] | -2.6 kcal/mol
14 | CC(=O)N[C@H]1[C@H]([C@H](O)[C@H](O)CO)O[C@@](O)(C(=O)O)C[C@@H]1O [2QWB] | -3.7 kcal/mol
15 | CC(=O)N[C@H]1[C@H]([C@H](O)[C@H](O)CO)OC(C(=O)O)=C[C@@H]1O [2QWC] | -4.8 kcal/mol
16 | CC(=O)N[C@H]1[C@H]([C@H](O)[C@H](O)CO)OC(C(=O)O)=C[C@@H]1N [2QWD] | -6.6 kcal/mol
17 | CC(=O)N[C@H]1[C@H]([C@H](O)[C@H](O)CO)OC(C(=O)O)=C[C@@H]1N=C(N)N [2QWE] | -10.2 kcal/mol
18 | CCN(CC)C(=O)[C@@H]1OC(C(=O)O)=C[C@H](N)[C@H]1NC(C)=O [2QWG] | -11.5 kcal/mol
19 | CC(C)C[C@H](NP(=O)(O)O)C(N)=O [2TMN] | -8 kcal/mol
20 | N=C(N)c1ccccc1 [3PTB] | -6.3 kcal/mol
21 | O=C(COP(=O)(O)O)NO [7TIM] | -7.4 kcal/mol
22 | OC[C@H]1O[C@H](O)[C@H](O)[C@@H](O)[C@H]1O [8ABP] | -10.7 kcal/mol

Second part, the compound after the results:

Row | ΔG, kcal/mol (free energy of ligand-protein binding) | Structure (SMILES)
23 | -9.2 kcal/mol | O[C@@H]1[C@@H](O)[C@@H](O)CO[C@H]1O [1ABE]
24 | -9.2 kcal/mol | Nc1ccnc2c1ncn2[C@@H]1O[C@H](CO)[C@@H](O)[C@H]1O [1ADD]
25 | -9.3 kcal/mol | O[C@@H]1[C@@H](O)[C@@H](O)OC[C@@H]1O [1BAP]
26 | -14.2 kcal/mol | CN[C@H]1CN(c2cccc(OC)c2)S(=O)(=O)c2sc(S(N)(=O)=O)cc21 [1BNM]
27 | -14.2 kcal/mol | COc1cccc(N2CCc3cc(S(N)(=O)=O)sc3S2(=O)=O)c1 [1BNN]
28 | -13.5 kcal/mol | CCN[C@H]1CN(CCOC)S(=O)(=O)c2sc(S(N)(=O)=O)cc21 [1BNQ]
29 | -13.9 kcal/mol | COc1ccc(N2C[C@H](O)c3cc(S(N)(=O)=O)sc3S2(=O)=O)cc1 [1BNT]
30 | -13.8 kcal/mol | NS(=O)(=O)c1cc2c(s1)S(=O)(=O)N(Cc1cccs1)C[C@@H]2O [1BNU]
31 | -9.3 kcal/mol | CC1=C(/C=C/C(C)=C/C=C/C(C)=C/CO)C(C)(C)CCC1 [1BRP]
32 | -8.7 kcal/mol | O=C(O)C[C@@H](Cc1ccccc1)C(=O)O [1CBX]
33 | -12.9 kcal/mol | CCN[C@H]1C[C@H](C)S(=O)(=O)c2sc(S(N)(=O)=O)cc21 [1CIL]
34 | -12 kcal/mol | C[C@H]1C[C@H](N)c2cc(S(N)(=O)=O)sc2S1(=O)=O [1CIM]
35 | -11.9 kcal/mol | CN[C@H]1C[C@H](C)S(=O)(=O)c2sc(S(N)(=O)=O)cc21 [1CIN]
36 | -4 kcal/mol | N=C(N)c1ccccc1 [1DWB]
37 | -9.8 kcal/mol | N[C@@H](Cc1c[nH]cn1)C(=O)O [1HSL]
38 | -12.6 kcal/mol | CNC(=O)[C@H](Cc1ccccc1)NC(=O)[C@@H](CC(=O)NO)CC(C)C [1MNC]

Row | ΔG, kcal/mol (free energy of ligand-protein binding) | Structure (SMILES)
39 | -7.8 kcal/mol | O=C(O)[C@H](O)[C@@H](O)[C@H](O)[C@H](O)COP(=O)(O)O [1PGP]
40 | -8.4 kcal/mol | Cc1ccc(S(=O)(=O)N[C@@H](Cc2cccc(C(=N)N)c2)C(=O)N2CCCCC2)cc1 [1PPH]
41 | -9.2 kcal/mol | CC1=C(/C=C/C(C)=C/C=C/C(C)=C/CO)C(C)(C)CCC1 [1RBP]
42 | -7.1 kcal/mol | Nc1nc2c(ncn2[C@@H]2O[C@H](CO)[C@@H](O)[C@H]2OP(=O)(O)O)c(=O)[nH]1 [1RNT]
43 | -2 kcal/mol | NCCCc1ccccc1 [1TNK]
44 | -5.3 kcal/mol | O=C(O)[C@@H](O)Cc1ccccc1 [2CTC]
45 | -11.9 kcal/mol | CC(=O)[C@H]1CC[C@H]2[C@@H]3CC[C@H]4C[C@@H](OC(=O)CCC(=O)O)CC[C@]4(C)[C@H]3CC[C@]12C [2DBL]
46 | -8.9 kcal/mol | OC[C@H]1O[C@@H](O)[C@H](O)[C@@H]1O [2DRI]
47 | -10.2 kcal/mol | OC[C@H]1O[C@@H](O)[C@H](O)[C@@H](O)[C@@H]1O [2GBP]
48 | -6.6 kcal/mol | O=C(O)COP(=O)(O)O [2YPI]
49 | -8.9 kcal/mol | OC[C@H]1O[C@H](O)[C@H](O)[C@@H](O)[C@H]1O [5ABP]
50 | -4.4 kcal/mol | O=P(O)(O)OC[C@@H](O)CO [6TIM]
51 | -8.7 kcal/mol | C[C@H]1O[C@H](O)[C@H](O)[C@@H](O)[C@H]1O [7ABP]
52 | -10.3 kcal/mol | O=C(O)C[C@H](NC(=O)CP(=O)(O)O)C(=O)O [8ATC]
53 | -10.7 kcal/mol | OC[C@H]1O[C@@H](O)[C@H](O)[C@@H](O)[C@H]1O [9ABP]
